From patent publication US9114149B2, “[CU(thp)4]n[X]-n compounds for the treatment of a broad range of human solid tumors, including refractory tumors” (Universita Degli Studi Di Padova, priority 2011, dated 2015)

Test: Tissue distribution (Cu content) in LLC bearing mice
Assay type: in vivo, C57BL mice
Details: 50 mg/kg i.p., 24 hrs; Cu by atomic absorption, treated versus control (FIG. 4)
Experimental: Mice were inoculated […]. on the right flank with 2×10^6 LLC cells. After 10 days, CP was administered i.p. at a dose of 50 mg/kg. The mice were sacrificed after 24 hours and tumor (indicated with 1), brain (indicated with 2), spleen (indicated with 3), kidney (indicated with 4), intestine (indicated with 5), liver (indicated with 6) and stomach (indicated with 7) were excised. Tissues were washed in ice-cold saline and weighed after removing excess fluid. All samples were mineralized in HNO3 and Cu content in each sample was measured by atomic absorption spectrophotometry. The Y axis indicates the ratio of copper amount in treated versus control mice.
To assess the potential selectivity to the solid tumor mass, tissue distribution of CP was investigated in LLC bearing C57BL mice. Biodistribution studies are very helpful in assessing the ability of a molecule to traverse multilayers of cells. Chemotherapy of solid tumors often fails because adequate cytotoxic concentrations are not achieved due to poor penetration and non-uniform distribution of the drug.
To assess the potential selectivity to the solid tumor mass, tissue distribution of [Cu(thp)4][PF6] (CP) was investigated in LLC bearing C57BL mice. On day 10 after tumor implantation, mice were treated with a single i.p. injection of 50 mg/kg of CP.

F[P-](F)(F)(F)(F)F.OC[P+](CO)(CO)[Cu-3]([P+](CO)(CO)CO)([P+](CO)(CO)CO)[P+](CO)(CO)CO [CP, [Cu(thp)4][PF6]]
CP concentration in solid tumor mass: highest CP concentration | copper drug in brain: No copper drug was detected | copper drug in intestinal tract: very little
